Values after ≈ are worked out from the molar mass of the structure shown. “Also recorded” adds a separate entry of the source. Read-outs that look alike come from different tables or passages of the source.
Legend:
S. aureus (25923) = assay: MIC, micro-broth dilution; format: cell-based; conditions: Staphylococcus aureus, 35° C., 24 hours, read-out: ANTIMICROBIAL ACTIVITY (MIC)
Method: (§1) The antimicrobial activity of the compounds according to the present invention were compared with the results obtained for squalamine as reported in Proc. Nat. Acad. Sci. USA 90:1354 (1993), supra, the disclosure of which is incorporated in toto herein. The data reported in the following table is the minimum inhibitory concentration (MIC) required for complete inhibition of microbial growth. The MIC was determined utilizing known micro-broth dilution methods in which inocula of 10^6 /ml of the test organism were incubated in 0.5× trypticase soy broth at 35° C. for 24 hours. MIC's were also tested under various pH conditions, with calcium chloride or magnesium chloride, or with immobilized horse serum.
(§2) The numbers in parentheses contained in the table correspond to accession numbers with the American Type Culture Collection (reference strains were either obtained from the American Type Culture Collection or from the Microbiology Laboratory at Memorial Sloan-Kettering Cancer Center; Bacterial strains were maintained on Columbia 5% sheep blood agar plates, and fungi were maintained on Sabouraud Dextrose agar plates).

S. agalactiae (13813) = assay: MIC, micro-broth dilution; format: cell-based; conditions: Streptococcus agalactiae, 35° C., 24 hours, read-out: ANTIMICROBIAL ACTIVITY (MIC)
Method: as §1, §2

P. aeruginosa (10145) = assay: MIC, micro-broth dilution; format: cell-based; conditions: Pseudomonas aeruginosa, 35° C., 24 hours, read-out: ANTIMICROBIAL ACTIVITY (MIC)
Method: as §1, §2

E. faecium (T6480-9) = assay: MIC, micro-broth dilution; format: cell-based; conditions: Enterococcus faecium, 35° C., 24 hours, read-out: ANTIMICROBIAL ACTIVITY (MIC)
Method: as §1, §2

E. cloacae (13047) = assay: MIC, micro-broth dilution; format: cell-based; conditions: Enterobacter cloacae, 35° C., 24 hours, read-out: ANTIMICROBIAL ACTIVITY (MIC)
Method: as §1, §2

S. pyrogenes (19615) = assay: MIC, micro-broth dilution; format: cell-based; conditions: 24 h, read-out: ANTIMICROBIAL ACTIVITY (MIC)
Method: as §1, §2

E. faecalis (29212) = assay: MIC, micro-broth dilution; format: cell-based; conditions: Enterococcus faecalis, 35° C., 24 hours, read-out: ANTIMICROBIAL ACTIVITY (MIC)
Method: as §1, §2

K. pneumoniae (13883) = assay: MIC, micro-broth dilution; format: cell-based; conditions: Klebsiella pneumoniae, 24 h, read-out: ANTIMICROBIAL ACTIVITY (MIC)
Method: as §1, §2

P. vulgaris (13315) = assay: MIC, micro-broth dilution; format: cell-based; conditions: Proteus vulgaris, 35° C., 24 hours, read-out: ANTIMICROBIAL ACTIVITY (MIC)
Method: as §1, §2

S. aureus (29213) = assay: MIC, micro-broth dilution; format: cell-based; conditions: Staphylococcus aureus, read-out: ANTIMICROBIAL ACTIVITY (MIC)
Method: as §1, §2

S. marcescens (13880) = assay: MIC, micro-broth dilution; format: cell-based; conditions: for MIC: Serratia marcescens, 24 h, read-out: ANTIMICROBIAL ACTIVITY (MIC)
Method: as §1, §2

E. coli (25922) = assay: MIC, micro-broth dilution; format: cell-based; conditions: Escherichia coli, 35° C., 24 hours, read-out: ANTIMICROBIAL ACTIVITY (MIC)
Method: as §1, §2

A. fumigatus (H1120) = assay: MIC, micro-broth dilution; format: cell-based; conditions: Aspergillus fumigatus, 35° C., 24 hours, read-out: ANTIMICROBIAL ACTIVITY (MIC)
Method: as §1, §2

C. neoformans (M68979) = assay: MIC, micro-broth dilution; format: cell-based; conditions: Cryptococcus neoformans, 24 h, read-out: ANTIMICROBIAL ACTIVITY (MIC)
Method: as §1, §2

S. epidermidis (12228) = assay: MIC, micro-broth dilution; format: cell-based; conditions: Staphylococcus epidermidis, 35° C., 24 hours, read-out: ANTIMICROBIAL ACTIVITY (MIC)
Method: as §1, §2

P. aeruginosa (2853) = assay: MIC, micro-broth dilution; format: cell-based; conditions: Pseudomonas aeruginosa, 24 h, read-out: ANTIMICROBIAL ACTIVITY (MIC)
Method: as §1, §2

C. albicans (90028) = assay: MIC, micro-broth dilution; format: cell-based; conditions: Candida albicans, 35° C., 24 hours, read-out: ANTIMICROBIAL ACTIVITY (MIC)
Method: as §1, §2

S. pneumoniae (6305) = assay: MIC, micro-broth dilution; format: cell-based; conditions: Streptococcus pneumoniae, 35° C., 24 hours, read-out: ANTIMICROBIAL ACTIVITY (MIC)
Method: as §1, §2

[1] = Hemolytic activity, minimal hemolytic concentration (MHC); format: cell-based, sheep; conditions: for MCC at 24 h: sheep, red blood cells;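 on MCC: MCC here is the minimal hemolytic concentration (MHC)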
Method: (§3) Hemolytic activity of the squalamine mimics according to the present invention were also studied by incubating sheep red blood cells for 24 hours at 37° C. in saline (final concentration of 0.5%) with or without respective concentrations of the squalamine mimics. The minimal hemolytic concentration (MHC) was determined as the lowest concentration of a mimic that raised visible hemolysis.

Cryptococcus neoformans = assay: MIC against clinical isolates; format: cell-based; conditions: 24 h; clinical isolates of Cryptococcus neoformans
Method: as §1, §2

Aspergillus fumigatus = assay: MIC against clinical isolates; format: cell-based; conditions: 24 h; clinical isolates of Aspergillus fumigatus
Method: as §1, §2

A. fumigatus (H29709) = assay: MIC, micro-broth dilution; format: cell-based; conditions: Aspergillus fumigatus, 35° C., 24 hours, read-out: ANTIMICROBIAL ACTIVITY (MIC)
Method: as §1, §2

C. neoformans (90012) = assay: MIC, micro-broth dilution; format: cell-based; conditions: Cryptococcus neoformans, 24 h, read-out: ANTIMICROBIAL ACTIVITY (MIC)
Method: as §1, §2

sheep red blood cells = assay: Hemolytic activity, minimal hemolytic concentration (MHC); format: cell-based;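 on MCC: MCC here is the minimal hemolytic concentration (MHC)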
Method: as §3

[2] = test system: various groups of microorganisms; assay: Antimicrobial activity (MIC), all microorganisms tested; format: cell-based
Method: as §1, §2

S. aureus (H20809) = assay: MIC, micro-broth dilution; format: cell-based; conditions: Staphylococcus aureus, 24 h, read-out: ANTIMICROBIAL ACTIVITY (MIC)
Method: as §1, §2

| SMILES | MIC (S. aureus (25923)) | MIC (S. agalactiae (13813)) | MIC (P. aeruginosa (10145)) | MIC (E. faecium (T6480-9)) | MIC (E. cloacae (13047)) | MIC (S. pyrogenes (19615)) | MIC (E. faecalis (29212)) | MIC (K. pneumoniae (13883)) | MIC (P. vulgaris (13315)) | MIC (S. aureus (29213); 24 h) | MIC (S. marcescens (13880)) | MIC (E. coli (25922)) | MIC (A. fumigatus (H1120)) | MIC (C. neoformans (M68979)) | MIC (S. epidermidis (12228)) | MIC (P. aeruginosa (2853)) | MIC (C. albicans (90028)) | MIC (S. pneumoniae (6305)) | MIC (A. fumigatus (H29709)) | MIC (C. neoformans (90012)) | further results |
| --- | --- | --- | --- | --- | --- | --- | --- | --- | --- | --- | --- | --- | --- | --- | --- | --- | --- | --- | --- | --- | --- |
| C[C@H](C(=O)NCCCNCCCCNCCCN)[C@H]1CC[C@H]2[C@@H]3CC=C4C[C@@H](OS(=O)(=O)O)CC[C@]4(C)[C@H]3CC[C@]12C [SM-2, 23,24-bisnor-3β-ol-5-cholenic acid 3-sulfate spermine conjugate] | 12.5 µg/mL (≈ 20.5 µM) | > 100 µg/mL | 12.5 µg/mL (≈ 20.5 µM) | > 100 µg/mL | > 100 µg/mL | 6.25 µg/mL (≈ 10.2 µM) | > 100 µg/mL | 12.5 µg/mL (≈ 20.5 µM) | > 100 µg/mL | > 100 µg/mL | > 100 µg/mL | 6.25 µg/mL (≈ 10.2 µM) | 12.5 µg/mL (≈ 20.5 µM) | 3.13 µg/mL (≈ 5.12 µM) | 3.13 µg/mL (≈ 5.12 µM) | 3.13 µg/mL (≈ 5.12 µM) | 12.5 µg/mL (≈ 20.5 µM) | > 100 µg/mL | – | – | minimal hemolytic concentration (MHC) at 24 h ([1]; sheep red blood cells, 24 hours at 37° C. in saline): > 100 µg/mL; MIC (Cryptococcus neoformans): 3.13 µg/mL (≈ 5.12 µM); MIC (Aspergillus fumigatus): 12.5 µg/mL (≈ 20.5 µM) |
| C[C@H](CCCNCCCNCCCCNCCCN)[C@H]1CC[C@H]2[C@@H]3CC[C@@H]4C[C@H](O)CC[C@]4(C)[C@H]3C[C@H](O)[C@]12C [SM-7H] | – | 0.78 µg/mL (≈ 1.39 µM) | 3.13 µg/mL (≈ 5.56 µM) | 6.25 µg/mL (≈ 11.1 µM) | 12.5 µg/mL (≈ 22.2 µM) | 0.39 µg/mL (≈ 0.693 µM) | 6.25 µg/mL (≈ 11.1 µM) | 12.5 µg/mL (≈ 22.2 µM) | 6.25 µg/mL (≈ 11.1 µM) | – | 12.5 µg/mL (≈ 22.2 µM) | 6.25 µg/mL (≈ 11.1 µM) | 12.5 µg/mL (≈ 22.2 µM) | 0.39 µg/mL (≈ 0.693 µM) | 0.39 µg/mL (≈ 0.693 µM) | 3.13 µg/mL (≈ 5.56 µM) | 6.25 µg/mL (≈ 11.1 µM) | 1.56 µg/mL (≈ 2.77 µM) | 12.5 µg/mL (≈ 22.2 µM) | 0.39 µg/mL (≈ 0.693 µM) | MIC (S. aureus (29213); S. aureus (29213), 35° C., 24 hours): 0.78 µg/mL (≈ 1.39 µM); activity against S. marcescens (S. marcescens (13880); in words): found even against S. marcescens; also recorded: effective against S. marcescens; hemolytic activity (in words) (sheep red blood cells): unwanted hemolytic activity; MCC at 24 h [1]: 50 µg/mL |
| C[C@H](CCC(=O)NCCCNCCCCNCCCN)[C@H]1CC[C@H]2[C@@H]3CC[C@@H]4CCCC[C@]4(C)[C@H]3CC[C@]12C [SM-19] | 3.13 µg/mL (≈ 5.74 µM) | 3.13 µg/mL (≈ 5.74 µM) | > 100 µg/mL | 3.13 µg/mL (≈ 5.74 µM) | > 100 µg/mL | 3.13 µg/mL (≈ 5.74 µM) | 6.25 µg/mL (≈ 11.5 µM) | 6.25 µg/mL (≈ 11.5 µM) | > 100 µg/mL | 3.13 µg/mL (≈ 5.74 µM) | > 100 µg/mL | 3.13 µg/mL (≈ 5.74 µM) | 3.13 µg/mL (≈ 5.74 µM) | 0.78 µg/mL (≈ 1.43 µM) | 1.56 µg/mL (≈ 2.86 µM) | 12.5 µg/mL (≈ 22.9 µM) | 3.13 µg/mL (≈ 5.74 µM) | 0.78 µg/mL (≈ 1.43 µM) | 3.13 µg/mL (≈ 5.74 µM) | 0.78 µg/mL (≈ 1.43 µM) | antimicrobial activity (in words) [2]: highly active; MIC (S. aureus (H20809)): 3.13 µg/mL (≈ 5.74 µM); MCC at 24 h [1]: 6.25 µg/mL |

Reference: patent US5834453A, “Methods for the manufacture and use of antimicrobial sterol conjugates” (Lehigh University, priority 1997, dated 1998)
